The values below come from patent US20230078764A1 (Yumanity Therapeutics, Inc., priority 2019, published 2023).

One assay addresses T1, human SCD1 (Homo sapiens, UniProt O00767).
T1 construct: expressed in transfected cells; host or cells: yeast strain with OLE1 deleted, plasmid-borne human SCD1 (selected in SD-Ura)
T1 sequence (O00767 1-359): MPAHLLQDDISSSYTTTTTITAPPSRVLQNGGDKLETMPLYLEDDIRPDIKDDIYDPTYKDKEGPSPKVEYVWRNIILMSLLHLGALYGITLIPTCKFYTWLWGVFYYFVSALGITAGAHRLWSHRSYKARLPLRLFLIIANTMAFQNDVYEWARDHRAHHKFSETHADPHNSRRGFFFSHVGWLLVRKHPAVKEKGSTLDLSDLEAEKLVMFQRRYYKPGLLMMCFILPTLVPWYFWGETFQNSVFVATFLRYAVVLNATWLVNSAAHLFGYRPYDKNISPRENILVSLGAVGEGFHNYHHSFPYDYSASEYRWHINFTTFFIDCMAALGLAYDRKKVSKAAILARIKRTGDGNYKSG
As to the kind of experiment: Growth inhibition of yeast strain expressing human SCD1 as sole desaturase (OLE1 deleted), OD600 readout. The assay is classed as cell-based. To be noted: yeast strain expressing human SCD1 as sole desaturase; growth (OD600) after 40 h at 30° C.; read-out: SCD1 IC50.

A further assay concerns the target T2, human SCD5 (Homo sapiens, UniProt Q86SK9).
T2 construct: expressed in transfected cells; host or cells: yeast strain with OLE1 deleted, plasmid-borne human SCD5 (selected in SD-Ura)
T2 sequence (Q86SK9 1-330): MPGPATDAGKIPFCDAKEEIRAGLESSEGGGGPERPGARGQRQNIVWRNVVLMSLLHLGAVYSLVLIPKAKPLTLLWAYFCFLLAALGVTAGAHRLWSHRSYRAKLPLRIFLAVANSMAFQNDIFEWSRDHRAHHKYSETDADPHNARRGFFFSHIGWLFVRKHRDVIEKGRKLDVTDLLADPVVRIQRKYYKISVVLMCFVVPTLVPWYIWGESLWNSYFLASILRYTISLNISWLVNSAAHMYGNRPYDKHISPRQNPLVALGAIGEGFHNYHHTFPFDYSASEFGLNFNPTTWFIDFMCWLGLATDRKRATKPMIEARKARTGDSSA
Kind of assay: Growth inhibition of yeast strain expressing human SCD5 as sole desaturase (OLE1 deleted), OD600 readout. Format: cell-based. Conditions: yeast strain expressing human SCD5 as sole desaturase; growth (OD600) after 40 h at 30° C.; read-out: SCD5 IC50.

Where only a bound is given, the exact number is not on record here.

On to `CC(O)c1ccc(C(=O)Nc2ccc(Cc3ccc(F)c(F)c3)cn2)nc1` (stereo not drawn) [Compound 511], for which the figures for the IC50 on human SCD1 and on human SCD5 were 143 nM and 190 nM, respectively.
For `CC(C)n1nc(C(=O)Nc2ccc(Cc3cccc(Cl)c3)cn2)ccc1=O` [Compound 73, N-(5-(3-chlorobenzyl)pyridin-2-yl)-1-isopropyl-6-oxo-1,6-dihydropyridazine-3-carboxamide], the IC50 at human SCD1 was 8080 nM; at human SCD5, 170 nM.
`O=C(Nc1ccc(Cc2cccc(Cl)c2)cn1)c1ccc(CO)nc1` [Compound 131, N-(5-(3-chlorobenzyl)pyridin-2-yl)-6-(hydroxymethyl)nicotinamide]: the half-inhibitory concentration (IC50) on human SCD1 and at human SCD5 was 10 nM throughout.
Take `COc1cc(Cc2ccc(NC(=O)c3cnc(C#N)cn3)nc2)ccc1F` [Compound 638]: the IC50 at human SCD1 is 3200 nM; at human SCD5, 98 nM.
On the same counts, the results for `CCn1cc(C(=O)Nc2ccc(Cc3cccc(F)c3)cn2)cn1` [Compound 355] are 540 nM and 160 nM.
The corresponding values for `O=C(Nc1ccc(Cc2cc(F)cc(F)c2)cn1)c1ncc(CO)cn1` [Compound 559] are 10 nM and 10 nM.
As for `O=C(Nc1ncc(Cc2cccc(Cl)c2)s1)c1ccc(=O)n(C2COC2)n1` [Compound 225, N-(5-(3-chlorobenzyl)thiazol-2-yl)-1-(oxetan-3-yl)-6-oxo-1,6-dihydropyridazine-3-carboxamide], the IC50 on human SCD1 is 2070 nM; on human SCD5 it was 1960 nM.
As to `O=C(Nc1ccc(Cc2cccc(F)c2)cn1)c1ccc(CO)nc1` [Compound 119, N-(5-(3-fluorobenzyl)pyridin-2-yl)-6-(hydroxymethyl)nicotinamide], the IC50 on human SCD1 and at human SCD5 was 10 nM each time.
On to `O=C(Nc1ccc(Cc2cccc(F)c2)cn1)c1ccc2nccn2c1` [Compound 154, N-(5-(3-fluorobenzyl)pyridin-2-yl)imidazo[1,2-a]pyridine-6-carboxamide], for which the IC50 at human SCD1 is more than 45000 nM; on human SCD5 it was 14600 nM.
As for `CN1N=C(NC(=O)c2ccc(Cc3ccc(F)c(F)c3)cn2)CCC1=O` [Compound 87, 5-(3,4-Difluorobenzyl)-N-(1-methyl-6-oxo-1,4,5,6-tetrahydropyridazin-3-yl)picolinamide], the IC50 at human SCD1 was more than 45000 nM; at human SCD5 it was 280 nM.
`N#Cc1cnc(C(=O)Nc2ccc(Cc3ccc(F)c(F)c3)cn2)nc1` [Compound 549]: the values for the IC50 on human SCD1 and at human SCD5 were more than 45000 nM and 890 nM, respectively.
In the case of `CN1N=C(C(=O)Nc2ncc(Cc3ccc(C#N)cc3)s2)CCC1=O` [Compound 341], the values for the IC50 at human SCD1 and at human SCD5 were more than 45000 nM and 2700 nM, respectively.
Take `Cn1nc(C(=O)Nc2ccc(Cc3cc(F)c(F)c(C#N)c3)cn2)ccc1=O` [Compound 558]: the IC50 on human SCD1 came out at 43000 nM; at human SCD5, 64 nM.
Regarding `Cc1nnc(C(=O)Nc2ccc(Cc3cccc(Cl)c3)cn2)s1` [Compound 103, N-(5-(3-chlorobenzyl)pyridin-2-yl)-5-methyl-1,3,4-thiadiazole-2-carboxamide], the 50% inhibitory concentration (IC50) came out at 160 nM at human SCD1 and 80 nM at human SCD5.
For the compound `Cn1nc(C(=O)Nc2ccc(Cc3ccc(F)c(F)c3)cn2)cc1O` [Compound 324], the values for the IC50 at human SCD1 and on human SCD5 were more than 45000 nM and 1130 nM, respectively.
Regarding `C[C@@H](O)c1ccc(C(=O)Nc2ccc(Cc3cccc(Cl)c3)cn2)cn1` [Compound 520], the IC50 on human SCD1 is 360 nM; on human SCD5, 90 nM.
For `CN1N=C(C(=O)Nc2ccc(Cc3cc(C(F)(F)F)ccn3)cn2)CCC1=O` [Compound 14, 1-methyl-6-oxo-N-(5-((4-(trifluoromethyl)pyridin-2-yl)methyl)pyridin-2-yl)-1,4,5,6-tetrahydropyridazine-3-carboxamide], the IC50 on human SCD1 was 17300 nM; on human SCD5, 3740 nM.
`CN1N=C(C(=O)Nc2ccc(Cc3cc(Cl)cc(C#N)c3)cn2)CCC1=O` [Compound 51, N-(5-(3-chloro-5-cyanobenzyl)pyridin-2-yl)-1-methyl-6-oxo-1,4,5,6-tetrahydropyridazine-3-carboxamide]: the IC50 at human SCD1 was more than 45000 nM; at human SCD5, 1560 nM.
The corresponding values for `N#Cc1cc(F)cc(Cc2ccc(NC(=O)c3ccnnc3)nc2)c1` [Compound 656] are 220 nM and 110 nM.
For the compound `Cn1cc(-c2ccc(C(=O)NCc3cccc(F)c3)nc2)ccc1=O` [Compound 467], the IC50 at human SCD1 and at human SCD5 was more than 45000 nM in each case.
For `CN1N=C(C(=O)Nc2ccc(CC3CCCCC3)cn2)CCC1=O` [Compound 370], the IC50 at human SCD1 is more than 45000 nM; on human SCD5 it was 6650 nM.
Take `Cn1cc(C(=O)Nc2ccc(Cc3ccc(F)cc3)cn2)ccc1=O` [Compound 248]: the values for the IC50 on human SCD1 and on human SCD5 were 200 nM and 10 nM, respectively.
Regarding `N#Cc1ccc(NC(=O)c2ccc(Cc3ccc(F)c(F)c3)cn2)cn1` [Compound 542], the IC50 at human SCD1 amounted to 18000 nM; on human SCD5, 10 nM.
Turning to `Cn1cc(C(=O)Nc2ccc(Cc3ccc(F)c(F)c3)cn2)n(C)c1=O` [Compound 643], the results for the IC50 at human SCD1 and at human SCD5 were 72 nM and 10 nM, respectively.
`CCO/C=C/c1ccc(C(=O)Nc2ccc(Cc3cccc(Cl)c3)cn2)cn1` [Compound 318]: the values for the IC50 on human SCD1 and on human SCD5 were 130 nM and 50 nM, respectively.
`O=C(Nc1ccc(Cc2cccc(F)c2)cn1)c1ccc(=O)n(C2COC2)c1` [Compound 272]: the IC50 at human SCD1 was more than 45000 nM; on human SCD5, 13000 nM.
On the same counts, the results for `COc1cc(Cc2ccc(NC(=O)c3ccc(=O)n(C)n3)nc2)ccc1F` [Compound 597] are 2600 nM and 70 nM.
Turning to `CN1N=C(C(=O)Nc2ccc(Cc3cncc(F)c3)cn2)CCC1=O` [Compound 442], the IC50 at human SCD1 and on human SCD5 was more than 45000 nM throughout.
On to `Cn1nc(C(=O)Nc2ccc(Cc3cccc(Cl)c3)cc2)ccc1=O` [Compound 3, N-(4-(3-chlorobenzyl)phenyl)-1-methyl-6-oxo-1,6-dihydropyridazine-3-carboxamide], for which the IC50 on human SCD1 was determined as 990 nM; at human SCD5, 450 nM.
Consider `N#Cc1ccc(C(=O)Nc2ccc(Cc3cc(F)ccc3F)cn2)cn1` [Compound 629], for which the values for the IC50 on human SCD1 and at human SCD5 were 3300 nM and 250 nM, respectively.
In the case of `Cn1nc(C(=O)Nc2ncc(Cc3cccc(F)c3)s2)ccc1=O` [Compound 202, N-(5-(3-fluorobenzyl)thiazol-2-yl)-1-methyl-6-oxo-1,6-dihydropyridazine-3-carboxamide], the IC50 on human SCD1 and on human SCD5 was 20 nM in each case.
For the compound `CN1N=C(C(=O)Nc2ccc(Cc3ccc(Cl)s3)cn2)CCC1=O` [Example 21, N-(5-((5-chlorothiophen-2-yl)methyl)pyridin-2-yl)-1-methyl-6-oxo-1,4,5,6-tetrahydropyridazine-3-carboxamide], the IC50 at human SCD1 was more than 45000 nM; at human SCD5 it was 1780 nM.
Take `CN1N=C(C(=O)Nc2ncc(C(C)(O)c3cccc(F)c3)s2)CCC1=O` (stereo not drawn) [Compound 419]: the IC50 at human SCD1 and at human SCD5 was more than 45000 nM each time.
Turning to `CN1N=C(C(=O)Nc2ccc(NCc3cc(F)cc(C#N)c3)nc2)CCC1=O` [Compound 439], the IC50 at human SCD1 and on human SCD5 was more than 45000 nM in each case.
Take `CN1N=C(NC(=O)c2ccc(Cc3cccc(Cl)c3)cn2)CCC1=O` [Compound 86, 5-(3-Chlorobenzyl)-N-(1-methyl-6-oxo-1,4,5,6-tetrahydropyridazin-3-yl)picolinamide]: the figures for the IC50 at human SCD1 and at human SCD5 were 9690 nM and 70 nM, respectively.
With `CC(=O)c1ccc(C(=O)Nc2ccc(Cc3cccc(Cl)c3)cn2)nn1` [Compound 517], the IC50 is 180 nM on human SCD1 and 140 nM at human SCD5.
For `Cc1nccc(C(=O)Nc2ccc(Cc3cccc(Cl)c3)cn2)n1` [Compound 114, N-(5-(3-chlorobenzyl)pyridin-2-yl)-2-methylpyrimidine-4-carboxamide], the IC50 was 50 nM at human SCD1 and 10 nM at human SCD5.
For `O=C(Nc1ccc(Cc2cccc(F)c2)cn1)c1cc2ncnc(Cl)c2s1` [Compound 527], the half-inhibitory concentration (IC50) on human SCD1 is more than 45000 nM; on human SCD5, 1300 nM.
On to `Cn1ccc(C(=O)Nc2ccc(Cc3cc(F)ccc3F)cn2)cc1=O` [Compound 630], for which the IC50 at human SCD1 was 1100 nM; on human SCD5, 320 nM.
Take `Cn1cc(C(=O)Nc2ccc(COc3ccccc3)cn2)ccc1=O` [Compound 600]: the IC50 turned out to be 28000 nM at human SCD1 and 1600 nM on human SCD5.
For the compound `N#Cc1cnc(C(=O)Nc2ccc(Cc3cccc(F)c3)cn2)nc1` [Compound 500], the IC50 on human SCD1 was more than 45000 nM; on human SCD5, 10 nM.
As for `Cn1cc(NC(=O)c2ccc(Cc3cccc(Cl)c3)cn2)ccc1=O` [Compound 57, 5-(3-chlorobenzyl)-N-(1-methyl-6-oxo-1,6-dihydropyridin-3-yl)picolinamide], the IC50 at human SCD1 was 560 nM; on human SCD5, 10 nM.

By IC50 is commonly meant the midpoint of a concentration-inhibition curve.
